The values that follow come from patent US10828315B2 (Madrigal Pharmaceuticals, Inc., priority 2013, dated 2020).

Data set [1] relates to HER2. As to the kind of experiment: HER2 degradation in BT-474 cells (Example 3, Methods 1 and 2). The data set is classed as cell-based, human. An excerpt:
This example illustrates how a HER2 degradation assay may be used as a test to determine and select Hsp90-targeting moieties suitable for use in SDC-TRAPs of the invention, and further illustrates the ability of SDC-TRAPs to target cells preferentially expressing Hsp90. Such a test may further be used to determine the Hsp90 binding ability of SDC-TRAPs of the invention, as well as through competitive binding assays and cell-based Hsp90 client protein degradation assays known in the art.
After treatment, each cytoplasmic sample is prepared from 1×10^6 cells by incubation of cell lysis buffer (#9803, Cell Signaling Technology) on ice for 10 minutes. The resulting supernatant used as the cytosol fractions is dissolved with sample buffer for SDS-PAGE and run on a SDS-PAGE gel, blotted onto a nitrocellulose membrane by using semi-dry transfer. Non-specific binding to nitrocellulose is blocked with 5% skim milk in TBS with 0.5% Tween at room temperature for 1 hour, then probed with anti-HER2/ErB2 mAb (rabbit IgG, #2242, Cell Signaling) and anti-Tubulin (T9026, Sigma) as housekeeping control protein. HRP-conjugated goat anti-rabbit IgG (H+L) and HRP-conjugated horse anti-mouse IgG (H+L) are used as secondary Ab (#7074#7076, Cell Signaling) and LumiGLO reagent, 20× Peroxide (#7003, Cell Signaling) is used for visualization. The Hsp90 client protein HER2 is degraded when cells are treated with Hsp90-targeting moieties or SDC-TRAPs of the invention.
BT-474 cells are plated in the interior 60 wells of a 96 well black clear bottom plate (20,000 cells/well) in DMEM medium, with DMEM media in the surrounding 36 wells, and incubated at 37° C. with 5% CO2 overnight. On the second day, concentration response curve source plates are produced (10 point, 3-fold dilution of compounds in DMSO) followed by a 1:30 dilution in an intermediate dilution plate containing DMEM. Compound is transferred from the intermediate plate to the cell plate at a dilution of 1:10. The cells are then incubated at 37° C. with 5% CO2 for 24 hours.
Cells are then fixed in 4% phosphate-buffered paraformaldehyde for 30 minutes at room temperature and then permeabilized by washing five times with 0.1% Triton X-100 in PBS for 5 minutes at room temperature on a shaker. […] Cells are washed five times with 0.1% Tween-20 in PBS for 5 minutes at room temperature on a shaker and incubated with fluorescently-labeled secondary antibody (LI-COR, #926-32211) diluted 1:1000 in blocking buffer, and DRAQ5 nuclear stain (Biostatus Limited, # DRAQ5) diluted 1:10,000, at room temperature on a shaker for 1 hour. Cells are washed 5 times with 0.1% Tween-20 in PBS for 5 minutes at room temperature on a shaker and imaged on a LI-COR Odyssey imaging station. The raw data is normalized to DRAQ5 and the HER2 EC50 is calculated using XLfit™.

The test system of data set [2] is HER2. As to the kind of experiment: HER2 degradation assay with BT-474 cell line (Example 12, FACS). The data set is classed as cell-based, human.
A short description of data set [3]: Mouse plasma stability protocol, up to 1 h (Examples 16-18). The following applies: for % Remaining (1 h): % Remaining of parent after 1 h incubation in mouse plasma at 37° C. (10 μM); for % Remaining (1 h, 37° C.) / Mouse (10 μM) % Remaining 1 h (37° C.)*: mouse plasma; for Mouse (10 μM) % Remaining 1 h (37° C.)*: sum of both peaks; for Peak Area Ratio: SDC-TRAP-0063 incubated in mouse plasma.

Data set [4] in a line: Stability in cell culture media (Example 18). The following applies: for Media (5 μM) % Remaining 1 h (37° C.)*: sum of both peaks.
Procedure: 98 μL of DMEM+10% FBS, +1% P/S, +1.5 g/L sodium bicarbonate cell culture media was mixed with 2 μL of DMSO and aliquotted into 96-well plates at 250 μL per 0, 1, 2, and 18 hour time point.
3×50 μL media samples in 96 were held in 96-well plates at −80° C. until the last time point was extracted. 200 μL of methanol containing IS was added and mixed by vortex at 1500 rpm for 1.5 minutes at room temperature. The samples were centrifuged at 4400 rpm for 10 minutes at 8° C.
For data set [5], the system named is human breast cancer cell line BT-474. As to the kind of experiment: Cytotoxicity assay (CellTiter-Glo, 72 h), BT-474. The data set is classed as cell-based. The following applies: BT-474, 72 hours, read-out: Cytotoxicity (IC50, nM) BT-474.
Procedure: (§1) Cytotoxicity of SDC-TRAP molecules was determined in three cancer cell lines. […] 80 μL of CellTiter-Glo was added to each well, followed by room temperature incubation in the dark for 15 minutes. Cell was determined by luminescence. IC50 was calculated using XLfit™ software.
Data set [6] relates to human urinary bladder cancer cell line RT-112. In words: Cytotoxicity assay (CellTiter-Glo, 72 h), RT-112. Format: cell-based. The following applies: RT-112, 72 hours, read-out: Cytotoxicity (IC50, nM) RT-112. In general terms: Cellular ATP, detected with luciferase, serves as a proxy for viable cell number.
Procedure: as §1
Data set [7] concerns human urinary bladder cancer cell line SW780. As to the kind of experiment: Cytotoxicity assay (CellTiter-Glo, 72 h), SW780. Format: cell-based. The following applies: SW780, 72 hours, read-out: Cytotoxicity (IC50, nM) SW-780.
Procedure: as §1
Data set [8] is described as follows: Metabolite profiling and identification. Format: in vitro ADME. Further details: key: —: Not detected. The following applies: for Metabolite Glucuronidation: M+1 569.3; for Metabolite Hydroxylation + glucuronidatiom: M+1 585.3. An excerpt:
Metabolite Profiling and Identification: Metabolite profiling/identification for SDC-TRAP-0063 (M+1:880.3)

The conditions of data set [9]: mouse, in vivo.
Procedure: Using the 10 mM stock solutions of the SDC-TRAP molecule and its Hsp90i binding moiety and effector moiety in DMSO, spiking solutions were prepared at 0.025, 0.05, 0.1, 0.5, 1, 5, 10, 50, 100, 250, and 500 μM in DMSO. 5 μL of each spiking solution was added to a 96-deep well plate.
Quality control standards were prepared from 5 μL of 0.1, 1, and 10 μM calibration standard spiking solution added in triplicate into 96-deep well plate and adding 50 μL of matrix (plasma or homogenized tumor).
To prepare test samples, test plasma was diluted as needed using blank plasma.
Tumor samples were pulverized in liquid nitrogen, weighed, and homogenized in PBS at 5× volume to sample weight. 50 μL of unknown plasma or homogenized tumor sample was mixed with 5 μL of DMSO. The samples were extracted by precipitating calibration standards, QC standards, and unknown samples with 200 μL of internal standard solution. The samples were mixed by vortex at room temperature for approximately 1.5 minutes, then centrifuge at 2-8° C. 150 μL of supernatant was collected and 25 μL of water added. Samples were mixed and analyzed by LC-MS/MS.
Samples of plasma, heart and tumor were excised from a euthanized mouse, homogenized in PBS at 5 times tissue weight and diluted in 5 μL DMSO/50 μL sample. Prior to analysis, 55 μL samples and calibration standards were precipitated in 200 μL methanol in 96-well plates. Samples were mixed on a vortex mixer for 1.5 minutes at 1500 rpm at room temperature, then centrifuged at 4400 rpm for 10 minutes at 8° C. 150 μL of each supernatant was transferred to a well of a new 96-well plate, and 25 μL of water was added and mixed with the sample. […] For the analysis of samples from female SCID mice, a gradient of solvent A (water/0.1% formic acid) and B (acetonitrile/0.1% formic acid) was used as in Table 2 below.
Various SDC-TRAP molecules and appropriate controls were administered to mice and after various time points the plasma and tumor concentration of these molecules was determined.
The nature of data set [10]: Artificial membrane permeability assay (PAMPA). On the technique in general: The PAMPA barrier holds no transporters, so it reflects passive diffusion.
Procedure: Pre-coated PAMPA plates were warmed to room temperature for at least 30 minutes prior to adding assay components.
Stock solutions were prepared with the SDC-TRAP molecules to be tested. In order to make a working solution, either 50 μL of 100 μM Stock in DMSO+950 μL of PBS or 50 μL of 200 μM stock was added to 96 deep well plate, resulting in a 5 μM final concentration or a 10 μM final concentration, respectively. 3000 μL of the working solution containing each compound to be tested was added to the appropriate well of a donor PAMPA plate. 200 μL of PBS was added into the corresponding wells of an acceptor PAMPA plates.
The acceptor plate was lowered onto the donor plate and allowed to incubate for five hours. After five hours, a 50 μL aliquot was removed from each well of each plate and added into a new 96 deep-well plate.
100 μL of methanol containing an internal standard was added to each aliquot and analyzed by LC/MS.
In order to calculate the permeability for each SDC-TRAP molecule and the control molecules, the following formula was used:

On to `CCc1c2c(nc3ccc(O)cc13)-c1cc3c(c(=O)n1C2)COC(=O)C3(CC)OC(=O)CCC(=O)N1CCC(Cc2ccc(-n3c(O)nnc3-c3cc(C(C)C)c(O)cc3O)cc2)CC1` (stereo not drawn) [SDC-TRAP-0042, 4,11-diethyl-9-hydroxy-3,14-dioxo-3,4,12,14-tetrahydro-1H-pyrano[3′,4′:6,7]indolizino[1,2-b]quinolin-4-yl 4-(4-(4-(3-(2,4-dihydroxy-5-isopropylphenyl)-5-hydroxy-4H-1,2,4-triazol-4-yl)benzyl)piperidin-1-yl)-4-oxobutanoate], for which the IC50 in the data set on HER2 [1] and in the data set with HER2 [2] was 1060 nM throughout. For the same molecule, the “% Remaining (1 h)” value in [3] is 73.9%. For the same molecule, the “% Remaining (1 h, 37° C.)” value in data set [3] (1 h) is reported as 74%.
With `CCc1c2c(nc3ccc(O)cc13)-c1cc3c(c(=O)n1C2)COC(=O)C3(CC)OC(=O)CCC(=O)N1CCN(Cc2ccc(-n3c(O)nnc3-c3cc(C(C)C)c(O)cc3O)cc2)CC1` (stereo not drawn) [SDC-TRAP-0043, 4,11-diethyl-9-hydroxy-3,14-dioxo-3,4,12,14-tetrahydro-1H-pyrano[3′,4′:6,7]indolizino[1,2-b]quinolin-4-yl 4-(4-(4-(3-(2,4-dihydroxy-5-isopropylphenyl)-5-hydroxy-4H-1,2,4-triazol-4-yl)benzyl)piperazin-1-yl)-4-oxobutanoate], the IC50 in the data set with HER2 [1] and in the data set with HER2 [2] was 2140 nM in each case.
Regarding `CCc1c2c(nc3ccc(O)cc13)-c1cc3c(c(=O)n1C2)COC(=O)C3(CC)OC(=O)N(C)CCn1ccc2cc(-n3c(O)nnc3-c3cc(C(C)C)c(O)cc3O)ccc21` (stereo not drawn) [SDC-TRAP-0038, 4,11-diethyl-9-hydroxy-3,14-dioxo-3,4,12,14-tetrahydro-1H-pyrano[3′,4′:6,7]indolizino[1,2-b]quinolin-4-yl (2-(5-(3-(2,4-dihydroxy-5-isopropylphenyl)-5-hydroxy-4H-1,2,4-triazol-4-yl)-1H-indol-1-yl)ethyl)(methyl)carbamate], the IC50 in the data set on HER2 [1] and in the data set on HER2 [2] was above 5000 nM each time.
As to `CC(C)c1cc(-c2nnc(O)n2-c2ccc3c(ccn3CCN(C)C(=O)CCCc3nc4cc(N(CCCl)CCCl)ccc4n3C)c2)c(O)cc1O` [SDC-TRAP-0039, (5-(bis(2-chloroethyl)amino)-1-methyl-1H-benzo[d]imidazol-2-yl)-N-(2-(5-(3-(2,4-dihydroxy-5-isopropylphenyl)-5-hydroxy-4H-1,2,4-triazol-4-yl)-1H-indol-1-yl)ethyl)-N-methylbutanamide], the IC50 with HER2 [1] amounted to 2940 nM; with HER2 [2] (BT-474 cells, overnight), 2920 nM.
With `CCc1c2c(nc3ccc(O)cc13)-c1cc3c(c(=O)n1C2)COC(=O)C3(CC)OC(=O)N1CCN(Cc2ccc(-n3c(O)nnc3-c3cc(C(C)C)c(O)cc3O)cc2)CC1` (stereo not drawn) [SDC-TRAP-0047, 4,11-diethyl-9-hydroxy-3,14-dioxo-3,4,12,14-tetrahydro-1H-pyrano[3′,4′:6,7]indolizino[1,2-b]quinolin-4-yl 4-(4-(3-(2,4-dihydroxy-5-isopropylphenyl)-5-hydroxy-4H-1,2,4-triazol-4-yl)benzyl)piperazine-1-carboxylate], the IC50 in the data set on HER2 [1] and in the data set with HER2 [2] was 875 nM each time. For the same molecule, the “% Remaining (1 h)” value in data set [3] stood at 88.9%. Also, the “% Remaining (1 h, 37° C.)” value in data set [3] (1 h) is 89%.
As for `CCc1c2c(nc3ccc(OC(=O)N4CCC(Cc5ccc(-n6c(O)nnc6-c6cc(C(C)C)c(O)cc6O)cc5)CC4)cc13)-c1cc3c(c(=O)n1C2)COC(=O)C3(O)CC` (stereo not drawn) [SDC-TRAP-0031, 4,11-diethyl-4-hydroxy-3,14-dioxo-3,4,12,14-tetrahydro-1H-pyrano[3′,4′:6,7]indolizino[1,2-b]quinolin-9-yl 4-(4-(3-(2,4-dihydroxy-5-isopropylphenyl)-5-hydroxy-4H-1,2,4-triazol-4-yl)benzyl)piperidine-1-carboxylate], the IC50 in the data set on HER2 [1] came out at 2920 nM; with HER2 [2] it was 1270 nM.
Regarding `CCc1c2c(nc3ccc(O)cc13)-c1cc3c(c(=O)n1C2)COC(=O)C3(CC)OC(=O)N(C)CCOCCn1ccc2cc(-n3c(O)nnc3-c3cc(C(C)C)c(O)cc3O)ccc21` (stereo not drawn) [SDC-TRAP-0037, 4,11-diethyl-9-hydroxy-3,14-dioxo-3,4,12,14-tetrahydro-1H-pyrano[3′,4′:6,7]indolizino[1,2-b]quinolin-4-yl (2-(2-(5-(3-(2,4-dihydroxy-5-isopropylphenyl)-5-hydroxy-4H-1,2,4-triazol-4-yl)-1H-indol-1-yl)ethoxy)ethyl)(methyl)carbamate], the midpoint of inhibition in the data set on HER2 [1], the IC50, lay at 2110 nM. Inhibition with HER2 [2] was half-maximal at 2110 nM (IC50). In data set [4], the “Media (5 μM) % Remaining 19 h (37° C.)” value came out at 6% and the “Media (5 μM) % Remaining 1 h (37° C.)*” value stood at 67%. Moreover, in data set [3], the “% Remaining (1 h)” value came to 95.3% and the “Mouse (10 μM) % Remaining 1 h (37° C.)*” value is listed as 95%. For the same molecule, the “% Remaining (1 h, 37° C.)” value in [3] (1 h) is 95%.
For the molecule `CC(C)c1cc(-c2nnc(O)n2-c2ccc3c(ccn3CCOCCN(C)C(=O)CCCc3nc4cc(N(CCCl)CCCl)ccc4n3C)c2)c(O)cc1O` [SDC-TRAP-0040, 4-(5-(bis(2-chloroethyl)amino)-1-methyl-1H-benzo[d]imidazol-2-yl)-N-(2-(2-(5-(3-(2,4-dihydroxy-5-isopropylphenyl)-5-hydroxy-4H-1,2,4-triazol-4-yl)-1H-indol-1-yl)ethoxy)ethyl)-N-methylbutanamide], the concentration for half-maximal inhibition (IC50) with HER2 [1] worked out at 4740 nM; with HER2 [2] (BT-474 cells, overnight), 4740 nM.
For `C=CCNC1=C2C[C@@H](C)C[C@H](OC)[C@H](O)[C@@H](C)/C=C(\C)[C@H](OC(N)=O)[C@@H](OC)/C=C\C=C(/C)C(=O)NC(=CC1=O)C2=O` [17-AAG, reference compound], the “degradation of HER2 (western blot)” value in the data set on HER2 [1] (0.5 μM, overnight) is listed as “partial degradation of HER2”.
With `CCc1c2c(nc3ccc(O)cc13)-c1cc3c(c(=O)n1C2)COC(=O)[C@]3(O)CC` [SN-38, reference compound], the half-inhibitory concentration (IC50) in data set [5] is above 10000 nM; in data set [6], below 10 nM; in data set [7], 38 nM. Moreover, the “Metabolite Glucuronidation” value in data set [8] (Hepatocytes Dog), in data set [8] (Hepatocytes Human), in data set [8] (Hepatocytes Monkey), in [8] (Hepatocytes Mouse) and in [8] (Hepatocytes Rat) was “√” throughout. The “Metabolite Hydroxylation + glucuronidatiom” value in data set [8] (Hepatocytes Dog) is reported as “—”; in [8] (Hepatocytes Human), “√”; in data set [8] (Hepatocytes Monkey) it was “√”; in [8] (Hepatocytes Mouse), “—”; in data set [8] (Hepatocytes Rat) it was “—”. Besides, the “Plasma Conc.” value in data set [9] is given as “BQL”. Further, in data set [9], the “Tumor Conc.” value is “BQL”. The “Media (5 μM) % Remaining 19 h (37° C.)” value in [4] is listed as 52%. Also, the “Media (5 μM) % Remaining 1 h (37° C.)*” value in data set [4] came out at 82%. Moreover, the “Mass Retention” value in [10] (incubation 5 h, first table) was 38.2%; in [10] (same protocol, second table) it was 46.6%. In data set [3], the “% Remaining (1 h)” value is given as 63.5%. Moreover, the “Peak Area Ratio” value in [3] (0 h) came to 0.0616; in [3] (0.5 h), 4.13; in data set [3] (1 h), 4.46; in [3] ([…]) it was 1.37. In addition, in data set [3], the “Mouse (10 μM) % Remaining 1 h (37° C.)*” value turned out to be 64%.

The term IC50 denotes the concentration that gives 50% inhibition.
